The values below come from patent US20190119282A1, “IMIDAZOPYRIDAZINES USEFUL AS INHIBITORS OF THE PAR-2 SIGNALING PATHWAY” (Vertex Pharmaceuticals Incorporated, priority 2013, published 2019).

Assay [1] deals with T1, PAR2 (HT-29 cells, SLIGKV activation) (Homo sapiens, UniProt P55085).
T1 construct: host or cells: HT-29 cells
T1 sequence (P55085 26-397): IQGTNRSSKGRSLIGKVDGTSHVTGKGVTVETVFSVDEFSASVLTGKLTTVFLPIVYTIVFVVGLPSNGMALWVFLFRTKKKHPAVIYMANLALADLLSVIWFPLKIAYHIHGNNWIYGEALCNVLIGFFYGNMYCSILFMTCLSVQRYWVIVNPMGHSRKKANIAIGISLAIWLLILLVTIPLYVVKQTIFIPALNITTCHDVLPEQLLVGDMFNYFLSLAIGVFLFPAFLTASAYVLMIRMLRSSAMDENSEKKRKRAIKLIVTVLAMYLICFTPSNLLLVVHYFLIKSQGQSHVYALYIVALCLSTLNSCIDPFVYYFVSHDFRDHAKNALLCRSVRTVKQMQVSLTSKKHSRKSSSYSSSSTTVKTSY
Put plainly: Ca FLIPR TETRA assay, ANTAGONIST mode, stimulation with 8 μM SLIGKV. Type of assay: cell-based. The conditions noted are these: HT-29 cells, antagonist mode, stimulation with 8 μM SLIGKV. The procedure, abridged:
(§1)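 HT-29 cells in 1% FBS/McCoy's overnight, loaded with Calcium 5 dye; compounds added and read first for intrinsic Ca2+ activation, then incubated 30 min at r.t. Antagonism read on FLIPR Tetra after stimulation with final 8 μM SLIGKV, 3.1 U/mL trypsin, 1 U/mL thrombin or 0.6 μM UTP.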

Assay [2] addresses T2, PAR2 (HT-29 cells, trypsin activation) (Homo sapiens, UniProt P55085).
T2 construct: host or cells: HT-29 cells
T2 sequence (P55085 26-397): T1 sequence (P55085 26-397)
Put plainly: Ca FLIPR TETRA assay, ANTAGONIST mode, stimulation with 3.1 U/mL trypsin. In kind it is cell-based. To be noted: HT-29 cells, antagonist mode, stimulation with 3.1 U/mL trypsin. The procedure, abridged: as §1

For assay [3], the system named is Thrombin-stimulated Ca2+ response in HT-29 cells. Nature of the assay: Ca FLIPR TETRA assay, ANTAGONIST mode, stimulation with 1 U/mL Thrombin. In kind it is cell-based, human. The conditions noted are these: Homo sapiens; HT-29 cells, antagonist mode, stimulation with 1 U/mL Thrombin. The procedure, abridged: as §1
Assay [4] has as its system UTP-stimulated Ca2+ response in HT-29 cells. Put plainly: Ca FLIPR TETRA assay, ANTAGONIST mode, stimulation with 0.6 μM UTP. In kind it is cell-based, human. The conditions noted are these: Homo sapiens; HT-29 cells, antagonist mode, stimulation with 0.6 μM UTP. The gist of the method: as §1

Some results are limits rather than exact numbers.

`CC(C)(C)c1cc(-c2ccc(F)cc2)nn2cc(C(=O)N3CCN(C(F)F)C(=O)C3(C)C)nc12` [Compound I-208]: the IC50 (usually the midpoint of a concentration-inhibition curve) in assay [1] was 85 nM; in assay [2] it was 103 nM; in assay [3] it was above 1000 nM; in assay [4] it was above 1000 nM.
For `C[C@@H]1C[C@H](c2cc(-c3ccc(F)cc3)nn3cc(C(=O)N4CCN(C(=O)OC(C)(C)C)CC4(C)C)nc23)C[C@H](C)O1` [Compound I-209], the IC50 in assay [1] was 16.6 nM; in assay [2] it was 16.6 nM; in assay [3] it was above 1000 nM; in assay [4], above 1000 nM.
Regarding `CC(C)(C)c1cc(-c2ccc(F)cc2)nn2cc(C(=O)N3CCN(C4COC4)C(=O)C3(C)C)nc12` [Compound I-210], the IC50 is 4 nM in assay [1], 3.5 nM in assay [2], above 1000 nM in assay [3] and above 1000 nM in assay [4].
Consider `CCN1CCN(C(=O)c2cn3nc(-c4ccc(F)cc4)cc(C(C)(C)C)c3n2)C(C)(C)C1=O` [Compound I-211], for which the IC50 in assay [1] is 5.4 nM; in assay [2], 4.5 nM; in assay [3], above 1000 nM; in assay [4], above 1000 nM.
Consider `C=C(C)c1cc(-c2ccc(F)cc2)nn2cc(C(=O)N3CCN(C)C(=O)C3(C)C)nc12` [Compound I-212], for which the IC50 is 90.3 nM in assay [1], 54.7 nM in assay [2], above 1000 nM in assay [3] and above 1000 nM in assay [4].
`C[C@@H]1C[C@H](c2cc(-c3ccc(F)cc3)nn3cc(C(=O)N4CCN(C(=O)c5ccn[nH]5)CC4(C)C)nc23)C[C@H](C)O1` [Compound I-214]: the IC50 in assay [1] is 21.2 nM; in assay [2], 26.8 nM; in assay [3], at least 1000 nM; in assay [4], above 1000 nM.
In the same order, the values of `CC(C)c1cc(-c2ccc(C(F)(F)F)cc2)nn2cc(C(=O)N3CCN(C(=O)C(C)(C)O)CC3(C)C)nc12` [Compound I-215] are 12 nM, 18.2 nM, above 1000 nM and above 1000 nM.
Taken in the same sequence, the figures for `Cc1cccc(-c2cc(C(C)C)c3nc(C(=O)N4CCN(C(=O)C(C)(C)O)CC4(C)C)cn3n2)c1` [Compound I-216] were 108 nM, 190 nM, above 1000 nM and above 1000 nM.
Taken in the same sequence, the figures for `CC(C)c1cc(-c2cccc(C(F)(F)F)c2)nn2cc(C(=O)N3CCN(C(=O)C(C)(C)O)CC3(C)C)nc12` [Compound I-217] were 205 nM, 545 nM, above 1000 nM and above 1000 nM.
Turning to `Cc1ccc(-c2cc(C(C)C)c3nc(C(=O)N4CCN(C(=O)C(C)(C)O)CC4(C)C)cn3n2)cc1` [Compound I-218], the IC50 in assay [1] is 24.8 nM; in assay [2] it was 39.8 nM; in assay [3], above 1000 nM; in assay [4], above 1000 nM.
As to `CC(C)c1cc(-c2ccc(OC(F)(F)F)cc2)nn2cc(C(=O)N3CCN(C(=O)C(C)(C)O)CC3(C)C)nc12` [Compound I-219], the IC50 is 143 nM in assay [1], 360 nM in assay [2], above 1000 nM in assay [3] and above 1000 nM in assay [4].
With `CC(C)c1cc(-c2ccc(C#N)cc2)nn2cc(C(=O)N3CCN(C(=O)C(C)(C)O)CC3(C)C)nc12` [Compound I-220], the IC50 in assay [1] was 760 nM; in assay [2], 880 nM; in assay [3], above 1000 nM; in assay [4], above 1000 nM.
Take `CC(C)c1cc(-c2ccc(F)c(F)c2)nn2cc(C(=O)N3CCN(C(=O)C(C)(C)O)CC3(C)C)nc12` [Compound I-221]: the IC50 in assay [1] is 23.3 nM; in assay [2], 39.5 nM; in assay [3], above 1000 nM; in assay [4], above 1000 nM.
As for `CC(C)c1cc(-c2ccc(F)c(C(F)(F)F)c2)nn2cc(C(=O)N3CCN(C(=O)C(C)(C)O)CC3(C)C)nc12` [Compound I-222], the IC50 in assay [1] is 108 nM; in assay [2], 205 nM; in assay [3], above 1000 nM; in assay [4], above 1000 nM.
Turning to `Cc1cc(-c2cc(C(C)C)c3nc(C(=O)N4CCN(C(=O)C(C)(C)O)CC4(C)C)cn3n2)ccc1F` [Compound I-223], the IC50 was 16.3 nM in assay [1], 26.7 nM in assay [2], above 1000 nM in assay [3] and above 1000 nM in assay [4].
For the compound `CC(C)c1cc(-c2cc(F)cc(F)c2)nn2cc(C(=O)N3CCN(C(=O)C(C)(C)O)CC3(C)C)nc12` [Compound I-224], the IC50 in assay [1] was 110 nM; in assay [2], 163 nM; in assay [3], above 1000 nM; in assay [4], above 1000 nM.
Consider `CC(C)(O)CN1CCN(C(=O)c2cn3nc(-c4ccc(F)cc4)cc(C(C)(C)C)c3n2)C(C)(C)C1=O` [Compound I-225], for which the IC50 was found to be 1.3 nM in assay [1], 2.5 nM in assay [2], 230 nM in assay [3] and 230 nM in assay [4].
Take `C[C@H]1CN(C(=O)c2cn3nc(-c4ccc(F)cc4)cc(C(C)(C)C)c3n2)C(C)(C)C(=O)N1` [Compound I-226]: the IC50 in assay [1] was 525 nM; in assay [2], 760 nM; in assay [3], above 1000 nM; in assay [4] it was above 1000 nM.
On to `CC(C)(C)c1cc(-c2ccc(F)cc2)nn2cc(C(=O)N3CCN(C(=O)c4ncc[nH]4)CC3(C)C)nc12` [Compound I-229], for which the half-inhibitory concentration (IC50) in assay [1] is 0.5 nM; in assay [2], 0.8 nM; in assay [3], above 1000 nM; in assay [4], above 1000 nM.
As for `CC(C)(C)c1cc(-c2ccc(F)cc2)nn2cc(C(=O)N3CCN(C(=O)c4cncnc4)CC3(C)C)nc12` [Compound I-230], the IC50 is 2.4 nM in assay [1], 5.5 nM in assay [2], 730 nM in assay [3] and above 1000 nM in assay [4].
Consider `CC(C)(C)c1cc(-c2ccc(F)cc2)nn2cc(C(=O)N3CCN(C(=O)c4ccncn4)CC3(C)C)nc12` [Compound I-231], for which the IC50 was 1.1 nM in assay [1], 1.6 nM in assay [2], above 1000 nM in assay [3] and above 1000 nM in assay [4].
Take `CC(CO)N1CCN(C(=O)c2cn3nc(-c4ccc(F)cc4)cc(C(C)(C)C)c3n2)C(C)(C)C1=O` (stereo not shown) [Compound I-233]: the IC50 in assay [1] is 5 nM; in assay [2], 6.8 nM; in assay [3], above 1000 nM; in assay [4], above 1000 nM.
In the case of `CC(C)(C)c1cc(-c2ccc(F)cc2)nn2cc(C(=O)N3CCN(C#N)C(=O)C3(C)C)nc12` [Compound I-234], the IC50 was 0.9 nM in assay [1], 1.3 nM in assay [2], above 1000 nM in assay [3] and above 1000 nM in assay [4].
On to `CC(C)(C)c1cc(-c2ccc(F)cc2)nn2cc(C(=O)N3CCN(c4nn[nH]n4)C(=O)C3(C)C)nc12` [Compound I-235], for which the IC50 in assay [1] was 0.7 nM; in assay [2], 1.1 nM; in assay [3], above 1000 nM; in assay [4], 930 nM.
Taken in the same sequence, the figures for `CC(C)c1cc(-c2ccc(F)cc2)nn2cc(C(=O)N3CCN(C(=O)c4ccncn4)CC3(C)C)nc12` [Compound I-236] were 8.2 nM, 18.6 nM, above 1000 nM and above 1000 nM.
As for `CC(C)c1cc(-c2ccc(F)cc2)nn2cc(C(=O)N3CCN(C(=O)c4nc[nH]n4)CC3(C)C)nc12` [Compound I-237], the IC50 was 5.8 nM in assay [1], 14.1 nM in assay [2], above 1000 nM in assay [3] and above 1000 nM in assay [4].
For `CC(C)c1cc(-c2ccc(F)cc2)nn2cc(C(=O)N3CCN(C(=O)c4ncc[nH]4)CC3(C)C)nc12` [Compound I-238], the IC50 is 2.5 nM in assay [1], 8.5 nM in assay [2], above 1000 nM in assay [3] and above 1000 nM in assay [4].
With `CC(C)c1cc(-c2ccc(F)cc2)nn2cc(C(=O)N3CCN(C(=O)c4ccn[nH]4)CC3(C)C)nc12` [Compound I-239], the IC50 in assay [1] was 3.2 nM; in assay [2], 6.4 nM; in assay [3], above 1000 nM; in assay [4], above 1000 nM.
Regarding `CC(C)c1cc(-c2ccc(F)cc2)nn2cc(C(=O)N3CCN(C(=O)C4CC(O)(C(F)(F)F)C4)CC3(C)C)nc12` (stereo not shown) [Compound I-240], the IC50 in assay [1] is 0.1 nM; in assay [2], 0.3 nM; in assay [3] it was above 1000 nM; in assay [4] it was above 1000 nM.
In the case of `Cc1ccc(-c2cc(C(C)C)c3nc(C(=O)N4CCNC(=O)C4(C)C)cn3n2)cc1` [Compound I-242], the IC50 in assay [1] was 5 nM; in assay [2], 7.7 nM; in assay [3] it was above 1000 nM; in assay [4] it was above 1000 nM.
On to `CC(C)c1cc(-c2ccc(F)c(F)c2)nn2cc(C(=O)N3CCNC(=O)C3(C)C)nc12` [Compound I-243], for which the IC50 is 4.1 nM in assay [1], 8.5 nM in assay [2], above 1000 nM in assay [3] and above 1000 nM in assay [4].
